Data taken from US11523612B2, “Pesticidal composition comprising oxime carbamate and use thereof” (priority 2017, dated 2022).

Columns and labels:
[1] = Solubility Test 1: oxamyl dissolved in solvent systems, crystallization or precipitation observed; assay type: physicochemical
Experimental: Samples of each solution were kept at −6° C. and −18° C. for 7 days, after which the degree of crystallization or precipitation of oxamyl was observed.

[2] = as above; assay type: physicochemical; remark: listed apart in the source
[3] = 40 g oxamyl in Methanol:Water 50:50 g
[4] = 40 g oxamyl in Methanol:Water 80:20 g
[5] = 40 g oxamyl in Methanol:Water:Propylene Carbonate 30:20:50 g
[6] = 40 g oxamyl in Methanol:Water:Propylene Carbonate 40:30:30 g
[7] = 40 g oxamyl in Methanol:Water:Propylene Carbonate 40:40:20 g
[8] = 40 g oxamyl in Methanol:Water:Propylene Carbonate 50:40:10 g
[9] = 40 g oxamyl in Methanol:Water:Propylene Carbonate 60:20:20 g
[10] = 40 g oxamyl in Methanol:Water:Propylene Carbonate 75:20:5 g

CNC(=O)O/N=C(\SC)C(=O)N(C)C [Oxamyl, methyl 2-(dimethylamino)-N-[[(methylamino)carbonyl]oxy]-2-oxoethanimidothioate]
Observations after 7 days at −6° C. [1, 3]: Mild precipitation
Observations after 7 days at −18° C. [1, 3]: Significant precipitation
Observations at room temperature [1, 3]: Clear solution
Observations after 7 days at −6° C. [1, 4]: Clear solution
Observations after 7 days at −18° C. [1, 4]: Significant precipitation
Observations after 7 days at −6° C. [1, 5]: Clear solution
Observations after 7 days at −18° C. [1, 5]: Clear solution
Observations after 7 days at −6° C. [1, 6]: Clear solution
Observations after 7 days at −18° C. [1, 6]: Clear solution
Observations at room temperature [1, 6]: Clear solution
Observations after 7 days at −6° C. [1, 7]: Clear solution
Observations after 7 days at −18° C. [1, 7]: Clear solution
Observations at room temperature [1, 7]: Clear solution
Observations after 7 days at −6° C. [1, 8]: Clear solution
Observations after 7 days at −18° C. [1, 8]: Clear solution
Observations at room temperature [1, 8]: Clear solution
Observations after 7 days at −6° C. [1, 9]: Clear solution
Observations after 7 days at −18° C. [1, 9]: Clear solution
Observations at room temperature [1, 9]: Clear solution
Observations after 7 days at −6° C. [1, 10]: Clear solution
Observations after 7 days at −18° C. [1, 10]: Clear solution
solubility for oxamyl ([1]; solvent system comprising methanol, water and propylene carbonate, temperatures down to −18° C.): significantly higher solubility
Observations at room temperature [2, 4]: Clear solution
Observations at room temperature [2, 5]: Clear solution
Observations at room temperature [2, 10]: Clear solution
